Assay results taken from patent publication US20110070190A1 (Roche Palo Alto LLC, priority 2009, published 2011).

What was measured:
[1] = target: T1, HCV polymerase (NS5B570n-Con1) (Hepatitis C virus genotype 1b, UniProt Q9WMX2); assay: HCV NS5B RNA polymerase activity (incorporation of radiolabeled nucleotide into acid insoluble RNA); assay type: biochemical, HCV Con1 strain
T1 construct: a 21 amino acid C-terminal deletion of full-length HCV polymerase; made in house; host or cells: E. coli BL21(DE3) pLysS, plasmid pET17b
Method: The enzymatic activity of HCV polymerase (NS5B570n-Con1) was measured as the incorporation of radiolabeled nucleotide monophosphates into acid insoluble RNA products. Unincorporated radiolabeled substrate was removed by filtration and scintillant was added to the washed and dried filter plate containing radiolabeled RNA product. The amount of RNA product generated by NS5B570n-Con1 at the end of the reaction was directly proportional to the amount of light emitted by the scintillant.
The HCV polymerase used in the enzymatic activity assay is a 21 amino acid C-terminal deletion of full-length HCV polymerase derived from HCV Con1 strain, genotype 1b (GenBank accession number AJ242654) (NS5B570n-Con1). The NS5B570n-Con1 was sub-cloned downstream to the T7 promoter of the plasmid expression construct pET17b and transformed into E. coli strain BL21(DE3) pLysS for protein expression. A single colony was used to start an innoculum for a 10 L culture in LB media supplemented with 100 μg/mL ampicillin at 37° C. Protein expression was induced by the addition of 0.25 mM isopropyl-β-D-thiogalactopyranoside (IPTG) when the optical density of the culture at […] was 0.8. Induction of protein expression was carried out at 30° C. for 16 h after which the cells were harvested by centrifugation. NS5B570n-Con1 was purified to homogeneity using a three-column purification protocol including subsequent column chromatography on Ni-NTA, SP-Sepharose HP and Superdex 75 resins.
Enzymatic reactions in the presence of cIRES RNA template (see paragraph [00213]) contained 20 nM cIRES RNA, 20 nM NS5B570n-Con1 enzyme, 0.5 μCi of tritiated UTP (Perkin Elmer catalog no. TRK-412; specific activity: 30 to 60 Ci/mmol;), 1 μM each ATP, CTP, and GTP, 40 mM Tris-HCl pH 8.0, 40 mM NaCl, 4 mM DTT (dithiothreitol), 4 mM MgCl2, 5 μl of compound serial diluted in DMSO, and nuclease-free water to a final reaction volume of 50 μl. Enzymatic reactions in the presence of poly A RNA template (see paragraph [00213]) contained 20 nM Poly A:oligo(rU)16 premixed (see section 0004), 20 nM NS5B570n-Con1 enzyme, 1 μCi of tritiated UTP (Perkin Elmer catalog no. TRK-412; specific activity: 30 to 60 Ci/mmol), 40 mM Tris-HCl pH 8.0, 40 mM NaCl, 4 mM DTT (dithiothreitol), 4 mM MgCl2, 5 μl of compound serial diluted in DMSO, and nuclease-free water to a final reaction volume of 50 μl. Reaction mixtures were assembled in 96-well filter plates (cat #MADVN0B, Millipore Co.) and incubated for 2 h at 30° C. Reactions were stopped by addition of 10% final (v/v) trichloroacetic acid and incubated for 40 min at 4° C. Reactions were filtered, washed with 8 reaction volumes of 10% (v/v) trichloroacetic acetic acid, 4 reaction volumes of 70% (v/v) ethanol, air dried, and 25 μl of scintillant (Microscint 20, Perkin-Elmer) was added to each reaction well.
Two RNA templates were used to assay compounds described herein. The cIRES RNA template was 377 nucleotide long and consisted of a partial complementary sequence (36 nucleotides) of the core protein, followed by 341 nucleotide of the complementary sequence of the internal ribosome entry site. The poly A RNA template (GE Amersham catalog number 27-4110) was a homopolymeric RNA pre-annealed to a oligo(rU)16 primer at a molar ratio of 3-to-1 (primer-template).
The amount of light emitted from the scintillant was converted to counts per minute (CPM) on a Topcount® plate reader (Perkin-Elmer, Energy Range: Low, Efficiency Mode: Normal, Count Time: 1 min, Background Subtract: none, Cross talk reduction: Off).
Data was analyzed in Excel® (Microsoft®) and ActivityBase® (Idbs®). The reaction in the absence of enzyme was used to determine the background signal, which was subtracted from the enzymatic reactions. Positive control reactions were performed in the absence of compound, from which the background corrected activity was set as 100% polymerase activity. All data was expressed as a percentage of the positive control. […]

HCV = details: cited from earlier work

| SMILES | melting point [°C] | IC50 [1] [µM] | effect on serum levels of HCV-RNA (HCV; monotherapy / sole treatment) | patients with serum amino transferase levels reduced to normal (HCV; monotherapy) [%] |
| --- | --- | --- | --- | --- |
| O=c1ncn(Cc2ccc(Cl)cc2)c2cc(-c3ccc(OCc4ccccn4)c(Cl)c3)sc12 [Compound I-6, 1-(4-chloro-benzyl)-6-[3-chloro-4-(pyridin-2-ylmethoxy)-phenyl]-1H-thieno[3,2-d]pyrimidin-4-one] | 272 to 274 | 0.018 |  |  |
| O=c1ncn(Cc2ccc(Cl)cc2)c2cc(-c3ccc(OCc4cnccn4)cc3)sc12 [Compound I-16, 1-(4-chloro-benzyl)-6-[4-(pyrazin-2-ylmethoxy)-phenyl]-1H-thieno[3,2-d]pyrimidin-4-one] | 236.9 to 239.6 | 0.071 |  |  |
| Cc1ccc(Cn2cnc(=O)c3sc(-c4ccccc4)cc32)c(F)c1 [Compound I-21] | 225.1 to 225.8 | 0.126 |  |  |
| Cc1ccc(Cn2cnc(=O)c3sc(-c4ccc(Cl)cc4)cc32)cc1 [Compound I-22] | 244.1 to 247.5 | 0.131 |  |  |
| O=c1ncn(Cc2ccc(Cl)cc2)c2cc(-c3ccc(OCc4ccccn4)cc3)sc12 [Compound I-28, 1-(4-Chloro-benzyl)-6-[4-(pyridin-2-ylmethoxy)-phenyl]-1H-thieno[3,2-d]pyrimidin-4-one] | 233 to 235 | 0.051 |  |  |
| Cc1ccc(Cn2cnc(=O)c3sc(-c4ccc(C(C)(C)C)cc4)cc32)cc1 [Compound I-29] | 260.5 to 261.5 | 0.223 |  |  |
| O=C(Nc1ccc(-c2cc3c(s2)c(=O)ncn3Cc2ccc(Cl)cc2)nc1)c1ccccn1 [Compound I-40, Pyridine-2-carboxylic acid {6-[1-(4-chloro-benzyl)-4-oxo-1,4-dihydro-thieno[3,2-d]pyrimidin-6-yl]-pyridin-3-yl}-amide] |  | 0.131 |  |  |
| O=C(Nc1ccc(-c2cc3c(s2)c(=O)ncn3Cc2ccc(Cl)cc2)cn1)c1ccccn1 [Compound I-41, Pyridine-2-carboxylic acid {5-[1-(4-chloro-benzyl)-4-oxo-1,4-dihydro-thieno[3,2-d]pyrimidin-6-yl]-pyridin-2-yl}-amide] |  | 0.062 |  |  |
| Cc1cc(N)n2nc(-c3ccc(-c4cc5c(s4)c(=O)ncn5Cc4ccc(Cl)cc4)cn3)cc2n1 [Compound I-42, 6-[6-(7-Amino-5-methyl-pyrazolo[1,5-a]pyrimidin-2-yl)-pyridin-3-yl]-1-(4-chloro-benzyl)-1H-thieno[3,2-d]pyrimidin-4-one] |  | 0.019 |  |  |
| Cc1cc(N)n2nc(-c3ccc(-c4cc5c(s4)c(=O)ncn5C[C@H]4CC[C@H](C)CC4)cn3)cc2n1 [Compound I-43, 6-[6-(7-Amino-5-methyl-pyrazolo[1,5-a]pyrimidin-2-yl)-pyridin-3-yl]-1-(4-methyl-cyclohexylmethyl)-1H-thieno[3,2-d]pyrimidin-4-one] |  | 0.428 |  |  |
| O=c1ncn(Cc2ccc(Cl)cc2)c2cc(-c3ccc(OCc4ccccc4)c(Cl)c3)sc12 [Compound I-44, 6-(4-Benzyloxy-3-chloro-phenyl)-1-(4-chloro-benzyl)-1H-thieno[3,2-d]pyrimidin-4-one] | 222 to 224 | 0.03 |  |  |
| Cc1cc(N)nc(COc2ccc(-c3cc4c(s3)c(=O)ncn4Cc3ccc(Cl)cc3)cc2)n1 [Compound I-45, 6-[4-(4-Amino-6-methyl-pyrimidin-2-ylmethoxy)-phenyl]-1-(4-chloro-benzyl)-1H-thieno[3,2-d]pyrimidin-4-one] | 272 to 274 | 0.372 |  |  |
| O=C(Nc1ccc(-c2cc3c(s2)c(=O)ncn3Cc2ccc(Cl)cc2)cc1)c1ccc(O)cn1 [Compound I-46, 5-Hydroxy-pyridine-2-carboxylic acid, {4-[1-(4-chloro-benzyl)-4-oxo-1,4-dihydro-thieno[3,2-d]pyrimidin-6-yl]-phenyl}-amide] |  | 0.017 |  |  |
| O=C(Nc1ccccc1)c1ccc(-c2cc3c(s2)c(=O)ncn3Cc2ccc(Cl)cc2)cc1 [Compound I-47, 4-[1-(4-Chloro-benzyl)-4-oxo-1,4-dihydro-thieno[3,2-d]pyrimidin-6-yl]-N-phenyl-benzamide] |  | ~0.04 |  |  |
| O=c1ncn(Cc2ccc(Cl)cc2)c2cc(-c3ccc(SCc4ccccn4)cc3)sc12 [Compound I-48, 1-(4-Chloro-benzyl)-6-[4-(pyridin-2-ylmethylsulfanyl)-phenyl]-1H-thieno[3,2-d]pyrimidin-4-one] |  | 0.163 |  |  |
| O=c1ncn(Cc2ccc(Cl)cc2)c2cc(-c3ccc(NCc4ccccc4)cc3)sc12 [Compound I-49, 6-(4-Benzylamino-phenyl)-1-(4-chloro-benzyl)-1H-thieno[3,2-d]pyrimidin-4-one] |  | 0.377 |  |  |
| O=c1ncn(Cc2ccc(Cl)cc2)c2cc(-c3ccc(OCc4cccnc4)cc3)sc12 [Compound I-50, 1-(4-Chloro-benzyl)-6-[4-(pyridin-3-ylmethoxy)-phenyl]-1H-thieno[3,2-d]pyrimidin-4-one] | 255 to 257 | 0.103 |  |  |
| O=c1ncn(Cc2ccc(Cl)cc2)c2cc(-c3ccc(SCc4cccnc4)cc3)sc12 [Compound I-51, 1-(4-Chloro-benzyl)-6-[4-(pyridin-3-ylmethylsulfanyl)-phenyl]-1H-thieno[3,2-d]pyrimidin-4-one] |  | 0.313 |  |  |
| N#Cc1ccc(-c2cc3c(s2)c(=O)ncn3Cc2ccc(Cl)cc2)cc1 [Compound I-52, 4-[1-(4-Chloro-benzyl)-4-oxo-1,4-dihydro-thieno[3,2-d]pyrimidin-6-yl]-benzonitrile] | > 300 | 1.6 |  |  |
| Cc1ccc(Cn2cnc(=O)c3sc(-c4ccc(CO)cc4)cc32)cc1 [Compound I-53, 6-(4-Hydroxymethyl-phenyl)-1-(4-methyl-benzyl)-1H-thieno[3,2-d]pyrimidin-4-one] |  | 0.56 |  |  |
| O=C(Nc1ccc(-c2cc3c(s2)c(=O)ncn3Cc2ccc(Cl)cc2)cc1)N1CCCC1 [Compound I-54, Pyrrolidine-1-carboxylic acid {4-[1-(4-chloro-benzyl)-4-oxo-1,4-dihydro-thieno[3,2-d]pyrimidin-6-yl]-phenyl}-amide] |  | 0.076 |  |  |
| CC(C)C(=O)Nc1ccc(-c2cc3c(s2)c(=O)ncn3Cc2ccc(Cl)cc2)cc1F [Compound I-55] |  | 1.79 |  |  |
| O=c1ncn(Cc2ccc(Cl)cc2)c2cc(-c3ccc(N4CCCC4)cc3)sc12 [Compound I-56, 1-(4-Chloro-benzyl)-6-(4-pyrrolidin-1-yl-phenyl)-1H-thieno[3,2-d]pyrimidin-4-one] |  | 1.61 |  |  |
| Cc1ccc(Cn2cnc(=O)c3sc(-c4ccc(-c5cc6ncccn6n5)cc4)cc32)cc1 [Compound I-57, 1-(4-Methyl-benzyl)-6-(4-pyrazolo[1,5-a]pyrimidin-2-yl-phenyl)-1H-thieno[3,2-d]pyrimidin-4-one] |  | 0.108 |  |  |
| O=c1ncn(Cc2ccc(Cl)cc2)c2cc(-c3ccc(OCc4ccncc4)cc3)sc12 [Compound I-58] | 257 to 259 | 0.049 |  |  |
| O=c1ncn(Cc2ccc(Cl)cc2)c2cc(-c3ccc(SCc4ccncc4)cc3)sc12 [Compound I-59] |  | 0.167 |  |  |
| NC(=O)c1ncn([C@@H]2O[C@H](CO)[C@@H](O)[C@H]2O)n1 [ribavirin, 1-((2R,3R,4S,5R)-3,4-Dihydroxy-5-hydroxymethyl-tetrahydro-furan-2-yl)-1H-[1,2,4]triazole-3-carboxylic acid amide] |  |  | does not lower serum levels of HCV-RNA | 40 |
